The values below come from US20100029710A1, “COMPOUNDS HAVING BOTH ANGIOTENSIN II RECEPTOR ANTAGONISM AND PPARy ACTIVATING ACTIVITIES” (Pfizer Products Inc., priority 2006, published 2010).

By pIC50 is commonly meant the negative decadic logarithm of the IC50, by convention in mol/L. For orientation: pEC50 means the EC50 on a negative log10 scale, so that one unit is a factor of ten.

pEC50, pIC50: −log10 of the molar value.

Assay [1] concerns the target T1, Human recombinant AT1 receptor (Homo sapiens, UniProt P30556).
T1 construct: purchased
T1 sequence (P30556 1-359): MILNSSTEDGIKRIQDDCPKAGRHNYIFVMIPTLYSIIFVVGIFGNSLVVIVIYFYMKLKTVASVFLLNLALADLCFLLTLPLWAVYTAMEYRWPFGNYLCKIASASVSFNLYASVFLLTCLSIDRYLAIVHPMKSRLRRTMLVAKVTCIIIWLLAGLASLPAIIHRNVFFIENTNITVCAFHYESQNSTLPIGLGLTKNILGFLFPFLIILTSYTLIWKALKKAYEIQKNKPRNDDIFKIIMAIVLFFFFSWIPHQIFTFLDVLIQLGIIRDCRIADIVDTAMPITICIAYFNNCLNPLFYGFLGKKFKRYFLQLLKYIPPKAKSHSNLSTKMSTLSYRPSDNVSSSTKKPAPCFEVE
As to the kind of experiment: AT1 receptor radioligand binding (flashplate). As to conditions: 125I Sar1,Ile8-Angiotensin II radioligand. The method, boiled down: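 Human recombinant AT1 receptor was coated on flashplates and competed against 125I-Sar1,Ile8-angiotensin II at its Kd concentration for 2 h at room temperature. Compounds were tested from […], with nonspecific binding defined by 10 μM angiotensin II. Ki was derived via Cheng-Prusoff.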

Assay [2] has as its target T2, human PPARγ LBD bound to Gal4 DBD (Homo sapiens, UniProt P37231).
T2 construct: expressed in transfected cells; host or cells: HepG2
T2 sequence (P37231 238-503 limits assumed): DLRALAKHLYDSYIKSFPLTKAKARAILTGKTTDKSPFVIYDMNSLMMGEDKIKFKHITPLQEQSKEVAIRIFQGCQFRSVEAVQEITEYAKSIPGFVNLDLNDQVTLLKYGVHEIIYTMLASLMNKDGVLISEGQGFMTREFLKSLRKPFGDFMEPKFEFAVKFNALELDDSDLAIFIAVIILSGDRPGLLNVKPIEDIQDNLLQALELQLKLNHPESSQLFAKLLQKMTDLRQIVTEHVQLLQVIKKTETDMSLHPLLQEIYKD
Put plainly: PPARγ transfection luciferase reporter assay in HepG2 cells. The class given is cell-based. As to conditions: for Emax: HepG2, 24 h, compared to full agonist response (standard TZD full agonist), read-out: PPARγ % activation; for pEC50: HepG2, 24 hours exposure. The method, boiled down: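 HepG2 cells transiently co-transfected with Gal4 DBD–PPARγ LBD, luciferase reporter and β-galactosidase, then exposed 24 h to compound (0.1 nM–100 μM). Luciferase/β-gal ratio gives activation. EC50 is relative to each compound's own maximum; efficacy is % of a reference TZD full agonist.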
(In general: In a reporter assay the amount or activity of a reporter protein is the signal.)

Consider `CCc1nc2c(C)cc(CCC3(O)CCCCC3)nc2n1[C@H]1CCc2cc(-c3ccccc3-c3nnn[nH]3)ccc21` [Example 52, 1-(2-(3-((1S)-5-(2-(1H-tetrazol-5-yl)phenyl)-2,3-dihydro-1H-inden-1-yl)-2-ethyl-7-methyl-3H-imidazo[4,5-b]pyridin-5-yl)ethyl)cyclohexanol], for which, in assay [1], the pIC50 is 8.89. In addition, in assay [2], the Emax was found to be 36% and the pEC50 was 6.54.

`CCc1nc2c(C)cc(CCC(C)(C)O)nc2n1[C@H]1CCc2cc(-c3ccccc3-c3nnn[nH]3)ccc21` [Example 53, 4-(3-((1S)-5-(2-(1H-tetrazol-5-yl)phenyl)-2,3-dihydro-1H-inden-1-yl)-2-ethyl-7-methyl-3H-imidazo[4,5-b]pyridin-5-yl)-2-methylbutan-2-ol]: in assay [1], the pIC50 was 8.85. In assay [2], the Emax amounted to 30% and the negative-log EC50 (pEC50) is 6.67.

In the case of `CCc1nc2c(C)cc(CCC3(O)CCOC3)nc2n1[C@H]1CCc2cc(-c3ccccc3-c3nnn[nH]3)ccc21` (stereo partly drawn) [Example 54, 3-(2-(3-((1S)-5-(2-(1H-tetrazol-5-yl)phenyl)-2,3-dihydro-1H-inden-1-yl)-2-ethyl-7-methyl-3H-imidazo[4,5-b]pyridin-5-yl)ethyl)-tetrahydrofuran-3-ol], the pIC50 in assay [1] was 9.00. Also, in assay [2], the Emax is 26% and the pEC50 was 6.27.

`CCc1nc2c(C)cc(CC[C@@](C)(O)C(C)C)nc2n1[C@H]1CCc2cc(-c3ccccc3-c3nnn[nH]3)ccc21` [Example 55, (R)-1-(3-((1S)-5-(2-(1H-tetrazol-5-yl)phenyl)-2,3-dihydro-1H-inden-1-yl)-2-ethyl-7-methyl-3H-imidazo[4,5-b]pyridin-5-yl)-3,4-dimethylpentan-3-ol]: the pIC50 in assay [1] is 8.62. Besides, in assay [2], the Emax was 38% and the negative-log EC50 (pEC50) was 6.82.

Regarding `CCc1nc2c(C)cc(CCC(O)(CC)CC)nc2n1[C@H]1CCc2cc(-c3ccccc3-c3nnn[nH]3)ccc21` [Example 56, 1-(3-((1S)-5-(2-(1H-tetrazol-5-yl)phenyl)-2,3-dihydro-1H-inden-1-yl)-2-ethyl-7-methyl-3H-imidazo[4,5-b]pyridin-5-yl)-3-ethylpentane-3-ol], the pIC50 in assay [1] was 8.60. Besides, in assay [2], the Emax was 31% and the pEC50 was 6.96.

With `CCc1nc2c(C)cc(CC[C@@H](O)C(C)C)nc2n1[C@H]1CCc2cc(-c3ccccc3-c3nnn[nH]3)ccc21` [Example 57, (R)-1-(3-((1S)-5-(2-(1H-tetrazol-5-yl)phenyl)-2,3-dihydro-1H-inden-1-yl)-2-ethyl-7-methyl-3H-imidazo[4,5-b]pyridin-5-yl)-4-methyl pentan-3-ol], the pIC50 in assay [1] is 8.60. In assay [2], the Emax turned out to be 28% and the negative logarithm of the EC50 (pEC50) is 6.55.

With `CCc1nc2c(C)cc(CCC3CCCCC3)nc2n1[C@H]1CCc2cc(-c3ccccc3-c3nnn[nH]3)ccc21` [Example 58, 3-((1S)-5-(2-(1H-tetrazol-5-yl)phenyl)-2,3-dihydro-1H-inden-1-yl)-5-(2-cyclohexylethyl)-2-ethyl-7-methyl-3H-imidazo[4,5-b]pyridine], in assay [1], the pIC50 was 8.42. Moreover, in assay [2], the Emax was 31% and the pEC50 was 6.70.

Take `CCc1nc2c(C)cc(CCC3CC3)nc2n1[C@H]1CCc2cc(-c3ccccc3-c3nnn[nH]3)ccc21` [Example 59, 3-((1S)-5-(2-(1H-tetrazol-5-yl)phenyl)-2,3-dihydro-1H-inden-1-yl)-5-(2-cyclopropylethyl)-2-ethyl-7-methyl-3H-imidazo[4,5-b]pyridine]: in assay [1], the pIC50 was 8.54. Moreover, in assay [2], the Emax worked out at 30% and the pEC50 is 6.67.

Take `CCc1nc2c(C)cc(C(=O)CC(C)C)nc2n1[C@H]1CCc2cc(-c3ccccc3-c3nnn[nH]3)ccc21` [Example 60, 1-(3-((1S)-5-(2-(1H-tetrazol-5-yl)phenyl)-2,3-dihydro-1H-inden-1-yl)-2-ethyl-7-methyl-3H-imidazo[4,5-b]pyridin-5-yl)-3-methylbutan-1-one]: the pIC50 in assay [1] is 7.66. Further, in assay [2], the Emax came out at 21% and the pEC50 is 6.28.
